Assay results as given in patent publication US20140228366A1, “HETEROARYL-SUBSTITUTED PYRAZOLOPYRIDINES AND USE THEREOF AS SOLUBLE GUANYLATE CYCLASE STIMULATORS” (BAYER INTELLECTUAL PROPERTY GMBH, priority 2011, published 2014).

What was measured:
rabbit aorta rings = assay: Vasorelaxant effect in vitro (phenylephrine-contracted aorta rings); conditions: Oryctolagus cuniculus, phenylephrine contraction, concentration reducing control contraction by 50%
Experimental: Rabbits are stunned by a blow to the neck and exsanguinated. The aorta is removed, freed from adhering tissue and divided into rings of a width of 1.5 mm. The rings are placed individually under an initial tension in 5 ml organ baths with Krebs-Henseleit solution which is at 37° C., is gassed with carbogen and has the following composition (in each case mM): sodium chloride: 119; potassium chloride: 4.8; calcium chloride dihydrate: 1; magnesium sulphate heptahydrate: 1.4; potassium dihydrogenphosphate: 1.2; sodium bicarbonate: 25; glucose: 10. The contractile force is determined with Statham UC2 cells, amplified and digitalized using A/D transducers (DAS-1802 HC, Keithley Instruments Munich), and recorded in parallel on linear recorders. To produce a contraction, phenylephrine is added to the bath cumulatively in increasing concentration. After several control cycles, the substance to be investigated is added in each further run in increasing dosage in each case, and the height of the contraction achieved is compared with the height of the contraction reached in the last preceding run. This is used to calculate the concentration needed to reduce the magnitude of the control value by 50% (IC50 value). The standard administration volume is 5 μl; the DMSO content in the bath solution corresponds to 0.1%.

[1] = target: T1, recombinant guanylate cyclase reporter cell line (Rattus norvegicus, UniProt P19686+P20595); assay: Effect on a recombinant guanylate cyclase reporter cell line; format: cell-based
T1 construct: expressed in transfected cells; host or cells: recombinant reporter cell line
T1 sequence (P19686 1-690): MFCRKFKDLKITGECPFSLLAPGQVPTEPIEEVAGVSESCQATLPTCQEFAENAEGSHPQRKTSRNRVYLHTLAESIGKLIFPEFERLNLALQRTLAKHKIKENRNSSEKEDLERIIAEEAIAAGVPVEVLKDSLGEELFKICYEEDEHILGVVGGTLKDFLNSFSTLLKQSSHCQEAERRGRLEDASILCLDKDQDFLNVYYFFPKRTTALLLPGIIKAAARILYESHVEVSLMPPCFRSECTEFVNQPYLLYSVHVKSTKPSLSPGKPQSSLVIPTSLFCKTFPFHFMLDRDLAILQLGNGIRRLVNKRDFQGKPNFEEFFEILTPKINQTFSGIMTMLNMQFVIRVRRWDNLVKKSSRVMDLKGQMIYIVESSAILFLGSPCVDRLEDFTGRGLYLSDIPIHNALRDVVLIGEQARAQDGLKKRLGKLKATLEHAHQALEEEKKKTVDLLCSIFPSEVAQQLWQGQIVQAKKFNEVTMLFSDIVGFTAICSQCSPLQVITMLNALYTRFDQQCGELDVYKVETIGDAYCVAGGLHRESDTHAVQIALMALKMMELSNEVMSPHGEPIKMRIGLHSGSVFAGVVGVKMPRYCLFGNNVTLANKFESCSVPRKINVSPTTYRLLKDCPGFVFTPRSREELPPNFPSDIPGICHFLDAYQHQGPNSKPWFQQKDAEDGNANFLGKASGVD
T1 sequence (P20595 1-619): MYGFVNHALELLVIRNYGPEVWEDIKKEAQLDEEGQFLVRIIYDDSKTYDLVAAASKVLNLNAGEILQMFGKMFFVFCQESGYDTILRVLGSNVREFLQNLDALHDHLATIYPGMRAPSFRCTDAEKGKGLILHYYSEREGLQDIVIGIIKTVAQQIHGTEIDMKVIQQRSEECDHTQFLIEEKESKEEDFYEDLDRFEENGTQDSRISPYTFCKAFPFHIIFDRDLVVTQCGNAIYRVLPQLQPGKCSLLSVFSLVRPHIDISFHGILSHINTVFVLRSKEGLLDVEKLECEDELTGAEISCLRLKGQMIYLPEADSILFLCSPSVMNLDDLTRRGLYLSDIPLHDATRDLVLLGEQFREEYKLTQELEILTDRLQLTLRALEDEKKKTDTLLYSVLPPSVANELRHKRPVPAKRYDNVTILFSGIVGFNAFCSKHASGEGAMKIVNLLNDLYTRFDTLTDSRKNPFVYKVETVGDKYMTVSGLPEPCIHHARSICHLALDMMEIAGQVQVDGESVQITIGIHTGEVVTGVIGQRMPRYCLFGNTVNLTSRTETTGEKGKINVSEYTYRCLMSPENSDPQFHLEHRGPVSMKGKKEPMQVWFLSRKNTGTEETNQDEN
Experimental: The cellular activity of the compounds according to the invention is determined using a recombinant guanylate cyclase reporter cell line, as described in F. Wunder et al., Anal. Biochem. 339, 104-112 (2005).

CC1(C)C(=O)Nc2nc(-c3nn(Cc4cncnc4)c4ncc(F)cc34)nnc21 [Example 19, 3-[5-Fluoro-1-(pyrimidin-5-ylmethyl)-1H-pyrazolo[3,4-b]pyridin-3-yl]-7,7-dimethyl-5,7-dihydro-6H-pyrrolo[2,3-e][1,2,4]triazin-6-one]
IC50 (rabbit aorta rings): 361 nM
MEC (minimum effective concentration) [1]: 0.1 µM

CC1(C)C(=O)Nc2nc(-c3nn(Cc4c(F)cncc4F)c4ncc(F)cc34)nc(O)c21 [Example 9, 2-{1-[(3,5-Difluoropyridin-4-yl)methyl]-5-fluoro-1H-pyrazolo[3,4-b]pyridin-3-yl}-4-hydroxy-5,5-dimethyl-5,7-dihydro-6H-pyrrolo[2,3-d]pyrimidin-6-one]
MEC (minimum effective concentration) [1]: 3.0 µM

CC1(C)C(=O)Nc2nc(-c3nn(Cc4ncc(F)cc4F)c4ncc(F)cc34)nnc21 [Example 16, 3-{1-[(3,5-Difluoropyridin-2-yl)methyl]-5-fluoro-1H-pyrazolo[3,4-b]pyridin-3-yl}-7,7-dimethyl-5,7-dihydro-6H-pyrrolo[2,3-e][1,2,4]triazin-6-one]
MEC (minimum effective concentration) [1]: 1.0 µM

CC1(C)C(=O)Nc2nc(-c3nn(Cc4c(F)cncc4F)c4ncc(F)cc34)ncc21 [Example 10, 2-[1-[(3,5-Difluoropyridin-4-yl)methyl]-5-fluoro-1H-pyrazolo[3,4-b]pyridin-3-yl]-5,5-dimethyl-5,7-dihydro-6H-pyrrolo[2,3-d]pyrimidin-6-one]
IC50 (rabbit aorta rings): 259 nM
MEC (minimum effective concentration) [1]: 1.0 µM

CC1(C)C(=O)Nc2nc(-c3nn(Cc4c(F)cncc4F)c4ncc(F)cc34)nc(N)c21 [Example 7, 4-Amino-2-{1-[(3,5-difluoropyridin-4-yl)methyl]-5-fluoro-1H-pyrazolo[3,4-b]pyridin-3-yl}-5,5-dimethyl-5,7-dihydro-6H-pyrrolo[2,3-d]pyrimidin-6-one]
IC50 (rabbit aorta rings): 116 nM
MEC (minimum effective concentration) [1]: 0.3 µM

CC1(C)C(=O)Nc2nc(-c3nn(Cc4ncccn4)c4ncc(F)cc34)nnc21 [Example 1, 3-[5-Fluoro-1-(pyrimidin-2-ylmethyl)-1H-pyrazolo[3,4-b]pyridin-3-yl]-7,7-dimethyl-5,7-dihydro-6H-pyrrolo[2,3-e][1,2,4]triazin-6-one]
IC50 (rabbit aorta rings): 1320 nM
MEC (minimum effective concentration) [1]: 10 µM

CC1(C)C(=O)Nc2nc(-c3nn(Cc4ccncc4F)c4ncc(F)cc34)nc(N)c21 [Example 12, 4-Amino-2-[5-fluoro-1-[(3-fluoropyridin-4-yl)methyl]-1H-pyrazolo[3,4-b]pyridin-3-yl]-5,5-dimethyl-5,7-dihydro-6H-pyrrolo[2,3-d]pyrimidin-6-one]
IC50 (rabbit aorta rings): 121 nM
MEC (minimum effective concentration) [1]: 1.0 µM

CC1(C)C(=O)Nc2nc(-c3nn(Cc4cncnc4)c4ncc(F)cc34)nc(N)c21 [Example 21, 4-Amino-2-[5-fluoro-1-(pyrimidin-5-ylmethyl)-1H-pyrazolo[3,4-b]pyridin-3-yl]-5,5-dimethyl-5,7-dihydro-6H-pyrrolo[2,3-d]pyrimidin-6-one]
IC50 (rabbit aorta rings): 99 nM
MEC (minimum effective concentration) [1]: 0.1 µM

CC1(C)C(=O)Nc2nc(-c3nn(Cc4ncccc4F)c4ncc(F)cc34)nc(I)c21 [Example 4, 2-{5-Fluoro-1-[(3-fluoropyridin-2-yl)methyl]-1H-pyrazolo[3,4-b]pyridin-3-yl}-4-iodo-5,5-dimethyl-5,7-dihydro-6H-pyrrolo[2,3-d]pyrimidin-6-one]
MEC (minimum effective concentration) [1]: 0.3 µM

CC1(C)C(=O)Nc2nc(-c3nn(Cc4sccc4F)c4ncc(F)cc34)nnc21 [Example 20, 3-{5-Fluoro-1-[(3-fluoro-2-thienyl)methyl]-1H-pyrazolo[3,4-b]pyridin-3-yl}-7,7-dimethyl-5,7-dihydro-6H-pyrrolo[2,3-e][1,2,4]triazin-6-one]
MEC (minimum effective concentration) [1]: 0.01 µM

CC1(C)C(=O)Nc2nc(-c3nn(Cc4ncccc4F)c4ncc(F)cc34)nc(O)c21 [Example 5, 2-{5-Fluoro-1-[(3-fluoropyridin-2-yl)methyl]-1H-pyrazolo[3,4-b]pyridin-3-yl}-4-hydroxy-5,5-dimethyl-5,7-dihydro-6H-pyrrolo[2,3-d]pyrimidin-6-one]
IC50 (rabbit aorta rings): 627 nM
MEC (minimum effective concentration) [1]: 3 µM

CC1(C)C(=O)Nc2nc(-c3nn(Cc4ccncc4F)c4ncc(F)cc34)ncc21 [Example 14, 2-{5-Fluoro-1-[(3-fluoropyridin-4-yl)methyl]-1H-pyrazolo[3,4-b]pyridin-3-yl}-5,5-dimethyl-5,7-dihydro-6H-pyrrolo[2,3-d]pyrimidin-6-one]
IC50 (rabbit aorta rings): 207 nM
MEC (minimum effective concentration) [1]: 1.0 µM

CC1(C)C(=O)Nc2nc(-c3nn(Cc4c(F)cncc4F)c4ncc(F)cc34)nnc21 [Example 11, 3-{1-[(3,5-Difluoropyridin-4-yl)methyl]-5-fluoro-1H-pyrazolo[3,4-b]pyridin-3-yl}-7,7-dimethyl-5,7-dihydro-6H-pyrrolo[2,3-e][1,2,4]triazin-6-one]
IC50 (rabbit aorta rings): 2540 nM
MEC (minimum effective concentration) [1]: 3.0 µM

CC1(C)C(=O)Nc2nc(-c3nn(Cc4ccncc4F)c4ncc(F)cc34)nnc21 [Example 15, 3-{5-Fluoro-1-[(3-fluoropyridin-4-yl)methyl]-1H-pyrazolo[3,4-b]pyridin-3-yl}-7,7-dimethyl-5,7-dihydro-6H-pyrrolo[2,3-e][1,2,4]triazin-6-one]
IC50 (rabbit aorta rings): 2230 nM
MEC (minimum effective concentration) [1]: 3.0 µM

CC1(C)C(=O)Nc2nc(-c3nn(Cc4cncnc4)c4ncc(F)cc34)ncc21 [Example 18, 2-[5-Fluoro-1-(pyrimidin-5-ylmethyl)-1H-pyrazolo[3,4-b]pyridin-3-yl]-5,5-dimethyl-5,7-dihydro-6H-pyrrolo[2,3-d]pyrimidin-6-one]
IC50 (rabbit aorta rings): 196 nM
MEC (minimum effective concentration) [1]: 0.1 µM
